Results published in patent US6207677A, “Piperidine derivatives having anxiolytic effect” (H. Lundbeck A/S, priority 1991, dated 2001).

Target: sigma receptors
Assay: Inhibition of 3H-DTG binding to sigma receptors in rat brain in vitro
Settings: 2 nM 3H-DTG, rat brain without cerebellum, 25° C., 20 min
Method: INHIBITION OF 3H-DTG BINDING TO SIGMA RECEPTORS IN RAT BRAIN IN VITRO
By this method the inhibition by drugs of the binding of 2 nM ^3 H-DTG (1,3,di-o-tolyl guanidine) to sigma receptors in homogenates or membranes from rat brain without cerebellum is determined in vitro as modified from Weber et al. Proc. Natl. Acad. Sci. 1986, 83,8784.
Homogenate: Rats (150-250 g) are decapitated and the brains (without cerebellum) quickly removed and placed on ice, weighed and homogenized in 100 vol ice-cold (0° C.) 50 mM Tris-buffer (pH 7.7) in an ethanol rinsed glass/teflon homogenizer at 0° C. and kept on ice until use.
P2-membranes: Brains are homogenized in 10 vol 0.32 M sucrose in an ethanol rinsed glass/teflon homogenizer with 10 strokes up and down. The homogenate is centrifuged for 10 min at 900×gm at 4° C. The supernatant is decanted and centrifuged for 20 min at 50,000 gm at 4° C. The resulting pellet is resuspended in 10 vol ice-cold […] Tris-buffer (pH 7.7) and incubated for 30 min. at 37° C. The membrane suspension is then centrifuged for further 20 min. at 50,000 gm at 4° C. The pellet is resuspended in 50 vol. of ice-cold Tris-buffer and used immediately.
0.5 ml 50 mM Tris-buffer (pH 7.7), 0.25 ml displacer (6×100 μM DTG, 6× [test compound], or Tris-buffer), and 0.25 ml 6×2 nM. ^3 H-DTG are mixed into 5 ml s plastic test tubes and kept at 4° C. until use. The binding reaction is initiated by mixing 0.5 ml tissue suspension into this solution and incubate at 25° C. for 20 min. Glass fiber filters (Whatman GF/B) are placed on the filter machine which is then closed tightly. Just before filtration vacuum is applied, and the filters washed with 0.1% PEI solution from a spray bottle followed by one wash with Tris-buffer.
The binding reaction is stopped by filtration of the assay mixture at reduced pressure (750 mbar) followed by further 3 washes with 5 ml ice-cold Tris-buffer. The filters are then placed in counting vials and 4 ml scintillation solution added. The vials are counted in a Beckmann scintillation counter.
50 mM Tris-buffer pH 7.7: 7.38 g Trizma--7.7 plus distilled H2 O ad 1 liter. 100 ml 10% polyethylenimine (PEI): 100 ml dest. H2 O is added to approx. 20 g 50% PEI which is solubilized by stirring and heating. Diluted (1+99) before use. 6×2 nM ^3 H-DTG: The exact volume depends on the actual concentration of the batch, but is made as close as possible to 12 nM. The containers for the radioactive solution is rinsed in 96% ethanol before use.
^3 H-DTG was obtained from NEN Research Products, Du Pont Denmark. Specific activity 62.3 Ci/mmol.
The known sigma receptor ligands BMY 14802 and rimcazole were included in the test for comparison purposes.

Row | Compound | IC50 [nM]
1 | c1ccc(CCCN2CCC3(CC2)OCc2ccccc23)cc1 [Compound 4d, 1'-(3-Phenyl-1-propyl)-spiro[isobenzofuran-1(3H),4'-piperidine]] | 1.1
2 | c1ccc(CCCCCN2CCC3(CC2)OCc2ccccc23)cc1 [Compound 4e, 1'-(5-Phenyl-1-pentyl)-spiro[isobenzofuran-1 (3h),4'-piperidine]] | 0.2
3 | CCCCCCCCCCCCCCCCCCN1CCC2(CC1)OCc1ccccc12 [Compound 4g, 1'-Octadecanyl-spiro[isobenzofuran-1(3H),4'-piperidine]] | 46
4 | Fc1ccc(-n2cc(CCCCN3CCC4(CC3)Cc3ccccc3CO4)c3ccccc32)cc1 [Compound 5b, 1,4-Dihydro-1'-[4-[1-(4-Fluorophenyl)-3-indolyl]-1-butyl]spiro[3H-2-benzopyran-3,4'-piperidine]] | 1.1
5 | c1ccc2c(c1)COC21CCN(CCCCc2cn(-c3ccsc3)c3ccccc23)CC1 [Compound 5c, 1'-(4-(1-(3-Thienyl)-3-indolyl]-1-butyl]spiro[isobenzofuran-1(3H),4'-piperidine]] | 0.25
6 | c1csc(-n2cc(CCCCN3CCC4(CC3)OCc3ccccc34)c3ccccc32)c1 [Compound 5d, 1'-[4-[1-(2-Thienyl)-3-indolyl]-1-butyl]spiro[isobenzofuran-1(3H),4'-piperidine]] | 0.24
7 | c1ccc2c(c1)COC21CCN(CCCCc2cn(-c3ccoc3)c3ccccc23)CC1 [Compound 5e, 1'-[4-[1-(3-Furanyl)-3-indolyl]-1-butyl]spiro[isobenzofuran-1(3H),4'-piperidine]] | 4.7
8 | Fc1ccc(-n2cc(CCCCN3CCC(c4ccccc4)CC3)c3ccccc32)cc1 [Compound 5f, 1-(4-Fluorophenyl)-3-[4-(4-phenyl-1-piperidyl)-1-butyl]indole] | 0.04
9 | c1ccc2c(c1)COC21CCN(CCCCc2cn(-c3ccncc3)c3ccccc23)CC1 [Compound 5g, 1'-[4-[1-(4-Pyridyl)-3-indolyl]-1-butyl]spiro[isobenzofuran-1(3H),4'-piperidine]] | 4
10 | CS(=O)(=O)n1cc(CCCCN2CCC3(CC2)OCc2ccccc23)c2ccccc21 [Compound 6a, 1'-(4-(1-Methanesulfonyl-3-indolyl)-1-butyl)spiro[isobenzofuran-1(3 H),4'-piperidine]] | 0.05
11 | Cc1ccc(S(=O)(=O)n2cc(CCCCN3CCC4(CC3)OCc3ccccc34)c3ccccc32)cc1 [Compound 6b, 1'-(4-(1-p-Toluenesulfonyl-3-indolyl)-1-butyl)spiro[isobenzofuran-1(3H),4'-piperidine]] | 0.17
12 | O=S(=O)(c1cccs1)n1cc(CCCCN2CCC3(CC2)OCc2ccc(F)cc23)c2ccccc21 [Compound 6c, 6-Fluoro-1'-(4-(1-(2-thienyl)sulfonyl-3-indolyl)-1-butyl)spiro[isobenzofuran-1(3H),4'-piperidine)] | < 0.1
13 | CC(=O)n1cc(CCCCN2CCC3(CC2)OCc2ccccc23)c2ccccc21 [Compound 7, 1'-(4-(1-Acetyl-3-indolyl)-1-butyl)spiro[isobenzofuran-1 (3H),4'-piperidine]] | 0.21
14 | Fc1ccc(-n2cc(OCCCN3CCC4(CC3)OCc3ccccc34)c3ccccc32)cc1 [Compound 8a, 1'-[3-[1-(4-Fluorophenyl)-3-indolyloxy]-1-propyl]spiro[isobenzofuran-1(3H),4'-piperidine]] | 0.21
15 | Fc1ccc(-n2cc(OCCCN3CCC4(CC3)OCc3ccccc34)c3ccc(Cl)cc32)cc1 [Compound 8b, 1'-[3-[6-Chloro-1-(4-fluorophenyl)-3-indolytoxy)-1-propyl]spiro[isobenzofuran-1(3M),4'-piperidine]] | 1.7
16 | Fc1ccc(-n2cc(OCCCN3CCC4(CC3)OCc3ccccc34)c3cc(Cl)ccc32)cc1 [Compound 8c] | 0.66
17 | Cc1ccc(C2CCN(CCCOc3cn(-c4ccc(F)cc4)c4ccc(Cl)cc34)CC2)cc1 [Compound 8d, 5-Chloro-1-(4-fluorophenyl)-3-[3-(4-(4-methylphenyl)-1-piperidinyl)-1-propyloxy]indol] | 11

Row | Compound | IC50 [nM]
18 | Fc1ccc(-n2cc(CCCCN3CCC4(CC3)COCc3ccccc34)c3ccccc32)cc1 [Compound 9a, 1'-[4-[1-(4-Fluorophenyl)-3-indolyl]-1-butyl]spiro[1H-2-benzopyran-4(3H), 4'-piperidine]] | 0.34
19 | Fc1ccc(-n2cc(CCCCN3CCC4(CC3)OCc3ccccc34)c3cc(F)ccc32)cc1 [Compound 9b, 1'-[4-[5-Fluoro-1-(4-fluorophenyl)-3-indolyl]-1-butyl]spiro[isobenzofuran-1(3H), 4'-piperidine]] | 0.06
20 | Fc1ccc(-n2cc(CCCCN3CCC4(CC3)SCc3ccccc34)c3ccccc32)cc1 [Compound 9c, 1'-[4-[1-(4-Fluorophenyl)-3-indolyl]-1-butyl]spiro[benzo[c]thiophene-1(3H),4'-piperidine]] | 0.14
21 | Fc1ccc(-n2cc(CCCCN3C4CCC3CC3(C4)OCc4ccccc43)c3ccccc32)cc1 (stereo not shown) [Compound 9d] | 26
22 | Fc1ccc(-n2cc(CCCCN3CCC4(CC3)OCc3cccc(F)c34)c3ccccc32)cc1 [Compound 9g, 7-Fluoro-1'-[4-[1-(4-fluorophenyl)-3-indolyl]-1-butyl]spiro[isobenzofuran-1(3H), 4'-piperidine]] | 4.2
23 | Cc1ccc2c(c1)COC21CCN(CCCCc2cn(-c3ccc(F)cc3)c3ccccc23)CC1 [Compound 9h, 1'-[4-[1-(4-Fluorophenyl)-3-indolyl]-1-butyl]-5-methylspiro[isobenzofuran-1(3H),4'-piperidine]] | 2.3
24 | Cc1ccc(-n2cc(CCCCN3CCC4(CC3)COCc3ccccc34)c3ccccc32)cc1 [Compound 9i, 1'-(4-(1-(4-Methylphenyl)-3-indolyl]-1-butyl]spiro[1H-2-benzopyran-4(3H), 4'-piperidine]] | 0.62
25 | Fc1ccc2c(c1)c(CCCCN1CCC3(CC1)OCc1ccccc13)cn2-c1ccsc1 [Compound 9j, 1'-[4-[5-Fluoro-1-(3-thienyl)-3-indolyl]-1-butyl]-spiro[isobenzofuran-1(3H),4'-piperidine]] | 0.11
26 | c1cncc(-n2cc(CCCCN3CCC4(CC3)COCc3ccccc34)c3ccccc32)c1 [Compound 9k, 1'-[4-[1-(3-Pyridinyl)-3-indolyl]-1-butyl]spiro[1H-2-benzopyran-4(3H), 4'-piperidine]] | 0.92
27 | Fc1ccc(C2CCN(CCCCc3cn(-c4ccc(F)cc4)c4ccccc34)CC2)cc1 [Compound 9l, 1-(4-Fluorophenyl)-3-[4-(4-(4-fluorophenyl)-1-piperidyl)-1-butyl]indole] | 0.14
28 | Cc1ccc(C2CCN(CCCCc3cn(-c4ccc(F)cc4)c4ccccc34)CC2)cc1 [Compound 9m, 1-(4-Fluorophenyl)-3-[4-(4-(4-methylphenyl)-1-piperidyl)-1-butyl]indole] | 1.6
29 | CC(C)c1ccc(C2CCN(CCCCc3cn(-c4ccc(F)cc4)c4ccccc34)CC2)cc1 [Compound 9n, 1-(4-Fluorophenyl)-3-[4-(4-(4-isopropylphenyl)-1-piperidyl)-1-butyl]indole] | 6.3
30 | CN(C)c1ccc(C2CCN(CCCCc3cn(-c4ccc(F)cc4)c4ccccc34)CC2)cc1 [Compound 9o, 1-(4-Fluorophenyl)-3-[4-(4-(4-dimethylaminophenyl)-1-piperidyl)-1-butyl]indole] | 6.7
31 | Fc1ccc(C2CCN(CCCCc3cn(-c4ccccc4)c4ccccc34)CC2)cc1 [Compound 9p, 1-Phenyl-3-[4-(4-(4-fluorophenyl)-1-piperidyl)-1-butyl]indole] | 0.28
32 | c1ccc2c(c1)COC21CCN(CCCCc2cn(-c3nccs3)c3ccccc23)CC1 [Compound 9q, 1'-[4-(1-(2-Thiazolyl)-3-indolyl)-1-butyl]spiro[isobenzofuran-1(3H) ,4'-piperidine]] | 0.12
33 | Fc1ccc(-n2cc(CCCCN3CCC4(CC3)OCc3c(F)cccc34)c3ccccc32)cc1 [Compound 9s, 4-Fluoro-1'-[4-[1-(4-fluorophenyl)-3-indolyl]-1-butyl]spiro[isobenzofuran-1(3H),4'-piperidine]] | 56
34 | Fc1ccc(-n2cc(CCCCN3CCC(c4cccc(C(F)(F)F)c4)CC3)c3ccccc32)cc1 [Compound 9t, 1-(4-Fluorophenyl)-3-[4-(4-(3-trifluoromethylphenyl)-1-piperidyl)-1-butyl]indole] | 3.2
